Data set [1] has as its target T1, PaNADK (NAD kinase from Pseudomonas aeruginosa) (Pseudomonas aeruginosa, UniProt Q9HZC0).
T1 sequence (Q9HZC0 1-295): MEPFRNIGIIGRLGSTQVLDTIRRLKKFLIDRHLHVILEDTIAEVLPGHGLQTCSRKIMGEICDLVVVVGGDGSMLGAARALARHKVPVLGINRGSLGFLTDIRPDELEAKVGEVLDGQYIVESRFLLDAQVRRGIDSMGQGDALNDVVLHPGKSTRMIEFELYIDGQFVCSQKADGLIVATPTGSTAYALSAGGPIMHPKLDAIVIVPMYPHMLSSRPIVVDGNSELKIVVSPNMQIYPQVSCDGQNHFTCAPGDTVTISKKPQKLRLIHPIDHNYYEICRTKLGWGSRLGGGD
The data set can be described thus: X-ray crystal structure, […] Å. It counts as binding.

In data set [2] the target is T1, PaNADK (NAD kinase from Pseudomonas aeruginosa). The experiment in a line: G6PDH-coupled enzyme assay, global competitive inhibition fit. It counts as biochemical.
For data set [3], the target named is T2, LmNADK (NADK 1 from Listeria monocytogenes) (Listeria monocytogenes, UniProt Q8Y8D7).
T2 sequence (Q8Y8D7 1-264): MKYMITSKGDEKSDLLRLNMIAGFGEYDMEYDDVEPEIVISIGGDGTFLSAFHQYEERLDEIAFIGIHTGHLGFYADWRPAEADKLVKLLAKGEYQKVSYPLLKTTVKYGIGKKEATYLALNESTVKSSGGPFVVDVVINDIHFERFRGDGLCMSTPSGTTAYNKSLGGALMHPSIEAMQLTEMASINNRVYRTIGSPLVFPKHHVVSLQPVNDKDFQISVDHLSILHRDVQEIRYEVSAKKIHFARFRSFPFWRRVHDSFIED
The data set can be described thus: enzyme inhibition. It counts as biochemical.

Substrate in data set [4]: NC(=O)c1ccc[n+]([C@@H]2O[C@H](COP(=O)([O-])OP(=O)(O)OC[C@H]3O[C@@H](n4cnc5c(N)ncnc54)[C@H](O)[C@@H]3O)[C@@H](O)[C@H]2O)c1
The data set can be described thus: purified protein. The conditions noted are these: MgATP.

Substrate in data set [5]: Nc1ncnc2c1ncn2[C@@H]1O[C@H](COP(=O)(O)OP(=O)(O)OP(=O)(O)O)[C@@H](O)[C@H]1O
The data set can be described thus: purified protein. The conditions noted are these: Mg2+.

We go through three molecules from PMC10087438 (The Febs Journal, 2022).

Turning to `NC(=O)c1ccc[n+]([C@@H]2O[C@H](COP(=O)([O-])OP(=O)(O)OC[C@H]3O[C@@H](n4cnc5c(N)ncnc54)[C@H](OP(=O)(O)O)[C@@H]3O)[C@@H](O)[C@H]2O)c1` [NADP^+], the “X-ray crystal structure, 2.3 Å” value in data set [1] is recorded as “we determined the atomic structure of the protein bound to NADP^+ by X‐ray crystallography”.

By Ki is commonly meant a dissociation constant, usually derived from enzyme kinetics or from competition with a known ligand. Low readings indicate tighter binding, high ones weaker binding. For the molecule `NC(=O)c1cccc([C@@H]2O[C@H](COCC#Cc3nc4c(N)ncnc4n3[C@@H]3O[C@H](CO)[C@@H](O)[C@H]3O)[C@@H](O)[C@H]2O)c1` [compound 1, 5‐O ‐[3‐(adenosin‐8‐yl)prop‐2‐yn‐1‐yl]‐1‐deoxy‐1‐(3‐carbamoylphenyl)‐β‐D‐ribofuranose], the Ki in data set [2] is 4.6 ± 0.3 µM; in data set [3], 3.2 ± 0.4 µM.

B1: PaNADK (NAD kinase from Pseudomonas aeruginosa) (Pseudomonas aeruginosa PAO1) (protein)
chain: T1 sequence (Q9HZC0 1-295)
What is called Km is the concentration of substrate that gives half-maximal velocity. On to B1, for which the Michaelis constant (Km) in the data set “purified protein [4]” came out at 150 µM; in “purified protein [5]” it was 2000 µM.
